# Test results: US20230111310A1, “CARBOXYLIC ACID DERIVATIVE-SUBSTITUTED IMINO ARYL COMPOUND, PREPARATION METHOD THEREFOR, HERBICIDAL COMPOSITION AND USE THEREOF” (Qingdao Kingagroot Chemical Compound Co., Ltd., priority 2020, published 2023)
# Assays:
# Assay type in all cases: in vivo
# Abutilon theophrasti [1] = experiment: Weeding effect in post-emergence stage; conditions: Dose 15 g/ha; for Weeding effect in post-emergence stage, Abutilon theophrasti (level): fresh weight control rate level
# In short: (§1)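 Doses of 500, 250, 125, 60, 30, 15 and 7.5 g/ha, with methyl oleate synergist (1.5 liter/ha) and Tween 80 from acetone solution, applied by spray tower post-emergence (2–3 leaf stage). Weed control scored after 3 further greenhouse weeks, averaged over triplicates.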
# Setaria viridis [2] = experiment: Weeding effect in post-emergence stage; conditions: Dose 15 g/ha; for Weeding effect in post-emergence stage, Setaria viridis (level): fresh weight control rate level
# In short: as §1
# Alopecurus japonicus = experiment: Weeding effect in post-emergence stage; conditions: Dose 15 g/ha; for Weeding effect in post-emergence stage, Alopecurus japonicus (level): fresh weight control rate level
# In short: as §1
# Digitaria sanguinalis = experiment: Weeding effect in post-emergence stage; conditions: Dose 15 g/ha; for Weeding effect in post-emergence stage, Digitaria sanguinalis (level): fresh weight control rate level
# In short: as §1
# Eleusine indica = experiment: Weeding effect in post-emergence stage; conditions: Dose 15 g/ha; for Weeding effect in post-emergence stage, Eleusine indica (level): fresh weight control rate level
# In short: as §1
# Echinochloa crusgalli = experiment: Weeding effect in post-emergence stage; conditions: Dose 15 g/ha; for Weeding effect in post-emergence stage, Echinochloa crusgalli (level): fresh weight control rate level
# In short: as §1
# Soybeans = experiment: Pre-emergence stage, crop selectivity; conditions: 30 g/ha, 4 weeks
# In short: (§2)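 Pots were kept in the greenhouse for 4 weeks and then rated for growth control on activity-level criteria. Spraying took place immediately after sowing at application rates of 500 to 7.5 g/ha, using an acetone/tween 80 formulation diluted with water, on seeds under 0.5-2 cm of soil.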
# cotton = experiment: Pre-emergence stage, crop selectivity; conditions: 30 g/ha, 4 weeks
# In short: as §2
# corn = experiment: Pre-emergence stage, crop selectivity; conditions: 30 g/ha, 4 weeks
# In short: as §2
# Peanut = experiment: Pre-emergence stage, crop selectivity; conditions: 30 g/ha, 4 weeks
# In short: as §2
# Abutilon theophrasti [3] = experiment: Weeding effect in pre-emergence stage; conditions: 30 g/ha, 4 weeks
# In short: as §2
# Setaria viridis [4] = experiment: Weeding effect in pre-emergence stage; conditions: 30 g/ha, 4 weeks
# In short: as §2
# Amaranthus retroflexus = experiment: Weeding effect in pre-emergence stage; conditions: 30 g/ha, 4 weeks
# In short: as §2
# Capsella bursa-pastoris = experiment: Weeding effect in pre-emergence stage; conditions: 30 g/ha, 4 weeks
# In short: as §2
# Descurainia sophia = experiment: Weeding effect in pre-emergence stage; conditions: 30 g/ha, 4 weeks
# In short: as §2
# Veronica didyma Tenore = experiment: Weeding effect in pre-emergence stage; conditions: 30 g/ha, 4 weeks
# In short: as §2
# [5] = level of fresh weight growth control rate
Compound,plant damage level Soybeans (Soybeans),plant damage level Cotton (cotton),plant damage level Corn (corn),plant damage level Peanut (Peanut),activity level (growth control rate) Abutilon theophrasti (Abutilon theophrasti [3]),activity level (growth control rate) Setaria viridis (Setaria viridis [4]),activity level (growth control rate) Amaranthus retroflexus (Amaranthus retroflexus),activity level (growth control rate) Capsella bursa-pastoris (Capsella bursa-pastoris),activity level (growth control rate) Descurainia sophia (Descurainia sophia),activity level (growth control rate) Veronica didyma Tenore (Veronica didyma Tenore),"Weeding effect in post-emergence stage, Abutilon theophrasti (level) (Abutilon theophrasti [1])","Weeding effect in post-emergence stage, Setaria viridis (level) (Setaria viridis [2])","Weeding effect in post-emergence stage, Alopecurus japonicus (level) (Alopecurus japonicus)","Weeding effect in post-emergence stage, Digitaria sanguinalis (level) (Digitaria sanguinalis)","Weeding effect in post-emergence stage, Eleusine indica (level) (Eleusine indica)","Weeding effect in post-emergence stage, Echinochloa crusgalli (level) (Echinochloa crusgalli)",further results
COC(=O)[C@@H](C)O/N=C/c1cc(-n2c(=S)cc(C(F)(F)F)n(C)c2=O)c(F)cc1Cl [349(R)],0 (Level 0: growth control rate is less than 5%),0 (Level 0: growth control rate is less than 5%),0 (Level 0: growth control rate is less than 5%),0 (Level 0: growth control rate is less than 5%),5 (Level 5: growth control rate is above 85%),5 (Level 5: growth control rate is above 85%),5 (Level 5: growth control rate is above 85%),5 (Level 5: growth control rate is above 85%),5 (Level 5: growth control rate is above 85%),5 (Level 5: growth control rate is above 85%),–,–,–,–,–,–,"Weeding effect in post-emergence stage, Abutilon theophrasti (Abutilon theophrasti [1]; [5]): 5 (Level 5: growth control rate is above 85%); Weeding effect in post-emergence stage, Setaria viridis (Setaria viridis [2]; [5]): 5 (Level 5: growth control rate is above 85%); Weeding effect in post-emergence stage, Alopecurus japonicus (Alopecurus japonicus; [5]): 5 (Level 5: growth control rate is above 85%); Weeding effect in post-emergence stage, Digitaria sanguinalis (Digitaria sanguinalis; [5]): 5 (Level 5: growth control rate is above 85%); Weeding effect in post-emergence stage, Eleusine indica (Eleusine indica; [5]): 5 (Level 5: growth control rate is above 85%); Weeding effect in post-emergence stage, Echinochloa crusgalli (Echinochloa crusgalli; [5]): 5 (Level 5: growth control rate is above 85%)"
CCSC(=O)[C@@H](C)O/N=C/c1cc(-n2c(=O)cc(C(F)(F)F)n(C)c2=O)c(F)cc1Cl [398(R)],0 (Level 0: growth control rate is less than 5%),0 (Level 0: growth control rate is less than 5%),0 (Level 0: growth control rate is less than 5%),0 (Level 0: growth control rate is less than 5%),5 (Level 5: growth control rate is above 85%),5 (Level 5: growth control rate is above 85%),5 (Level 5: growth control rate is above 85%),5 (Level 5: growth control rate is above 85%),5 (Level 5: growth control rate is above 85%),5 (Level 5: growth control rate is above 85%),5 (Level 5: growth control rate is above 85%),5 (Level 5: growth control rate is above 85%),5 (Level 5: growth control rate is above 85%),5 (Level 5: growth control rate is above 85%),5 (Level 5: growth control rate is above 85%),5 (Level 5: growth control rate is above 85%),–
COC(=O)[C@@H](C)O/N=C/c1cc(-n2c(=O)c(Cl)c(C(F)(F)F)n(C)c2=O)c(F)cc1Cl [431(R)],0 (Level 0: growth control rate is less than 5%),0 (Level 0: growth control rate is less than 5%),0 (Level 0: growth control rate is less than 5%),0 (Level 0: growth control rate is less than 5%),5 (Level 5: growth control rate is above 85%),5 (Level 5: growth control rate is above 85%),5 (Level 5: growth control rate is above 85%),5 (Level 5: growth control rate is above 85%),5 (Level 5: growth control rate is above 85%),5 (Level 5: growth control rate is above 85%),5 (Level 5: growth control rate is above 85%),5 (Level 5: growth control rate is above 85%),5 (Level 5: growth control rate is above 85%),5 (Level 5: growth control rate is above 85%),5 (Level 5: growth control rate is above 85%),5 (Level 5: growth control rate is above 85%),–
COC(=O)[C@@H](C)O/N=C/c1cc(N2C(=O)CC(N)(C(F)(F)F)N(C)C2=O)c(F)cc1Cl (stereo partly drawn) [432(R)],0 (Level 0: growth control rate is less than 5%),0 (Level 0: growth control rate is less than 5%),0 (Level 0: growth control rate is less than 5%),0 (Level 0: growth control rate is less than 5%),5 (Level 5: growth control rate is above 85%),5 (Level 5: growth control rate is above 85%),5 (Level 5: growth control rate is above 85%),5 (Level 5: growth control rate is above 85%),5 (Level 5: growth control rate is above 85%),5 (Level 5: growth control rate is above 85%),5 (Level 5: growth control rate is above 85%),5 (Level 5: growth control rate is above 85%),5 (Level 5: growth control rate is above 85%),5 (Level 5: growth control rate is above 85%),5 (Level 5: growth control rate is above 85%),5 (Level 5: growth control rate is above 85%),–
COC(=O)C(C)(C)O/N=C/c1cc(-n2c(=O)cc(C(F)(F)F)n(C)c2=O)c(F)cc1Cl [Compound 433],0 (Level 0: growth control rate is less than 5%),0 (Level 0: growth control rate is less than 5%),0 (Level 0: growth control rate is less than 5%),0 (Level 0: growth control rate is less than 5%),5 (Level 5: growth control rate is above 85%),5 (Level 5: growth control rate is above 85%),5 (Level 5: growth control rate is above 85%),5 (Level 5: growth control rate is above 85%),5 (Level 5: growth control rate is above 85%),5 (Level 5: growth control rate is above 85%),5 (Level 5: growth control rate is above 85%),5 (Level 5: growth control rate is above 85%),5 (Level 5: growth control rate is above 85%),5 (Level 5: growth control rate is above 85%),5 (Level 5: growth control rate is above 85%),5 (Level 5: growth control rate is above 85%),–
